Measured values: patent US8129355B2, “Ketone ligands for modulating the expression of exogenous genes via an ecdysone receptor complex” (priority 2002, dated 2012)
“And” between values parts separate entries of the source, which are not always exact repeats. Equal values may be shown once.

Tests used:
[1] = molecular target: T1, Bombyx mori EcR (VP16 fusion, switch construct CVBE) with 6XEcRE LacZ reporter (Bombyx mori, UniProt P49881); assay: Z3 assay: β-galactosidase (LacZ) reporter gene fold induction in stably transformed human 293 kidney cells (clone Z3); assay type: cell-based; settings: for Fold Induction Average, Z3 Assay (33 μM): single dose 33 μM, ligand treated / DMSO treated cells; for CC50: average, dose response, three-parameter logistic model, read-out: Z3 LC50; for Z3 Rel Max FI: maximum fold induction at any concentration relative to that of GS-E ligand
T1 construct: expressed in transfected cells; host or cells: Human 293 kidney (HEK-293) cells, retrovirally infected, clone Z3
T1 sequence (P49881 86-606 limits assumed): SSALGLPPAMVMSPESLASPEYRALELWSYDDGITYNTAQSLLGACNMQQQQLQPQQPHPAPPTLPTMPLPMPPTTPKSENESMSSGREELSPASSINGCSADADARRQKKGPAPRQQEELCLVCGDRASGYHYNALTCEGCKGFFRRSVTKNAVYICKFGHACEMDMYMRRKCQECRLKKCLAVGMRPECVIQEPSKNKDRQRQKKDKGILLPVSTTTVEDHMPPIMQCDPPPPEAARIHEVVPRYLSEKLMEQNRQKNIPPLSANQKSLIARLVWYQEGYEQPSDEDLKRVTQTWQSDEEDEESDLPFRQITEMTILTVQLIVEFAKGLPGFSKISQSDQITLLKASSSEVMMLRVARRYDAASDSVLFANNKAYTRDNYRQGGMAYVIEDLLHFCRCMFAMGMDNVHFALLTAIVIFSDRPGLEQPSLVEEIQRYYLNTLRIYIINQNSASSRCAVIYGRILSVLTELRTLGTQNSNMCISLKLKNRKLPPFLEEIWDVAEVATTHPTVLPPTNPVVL
T1 sequence (P19793 1-462 partner): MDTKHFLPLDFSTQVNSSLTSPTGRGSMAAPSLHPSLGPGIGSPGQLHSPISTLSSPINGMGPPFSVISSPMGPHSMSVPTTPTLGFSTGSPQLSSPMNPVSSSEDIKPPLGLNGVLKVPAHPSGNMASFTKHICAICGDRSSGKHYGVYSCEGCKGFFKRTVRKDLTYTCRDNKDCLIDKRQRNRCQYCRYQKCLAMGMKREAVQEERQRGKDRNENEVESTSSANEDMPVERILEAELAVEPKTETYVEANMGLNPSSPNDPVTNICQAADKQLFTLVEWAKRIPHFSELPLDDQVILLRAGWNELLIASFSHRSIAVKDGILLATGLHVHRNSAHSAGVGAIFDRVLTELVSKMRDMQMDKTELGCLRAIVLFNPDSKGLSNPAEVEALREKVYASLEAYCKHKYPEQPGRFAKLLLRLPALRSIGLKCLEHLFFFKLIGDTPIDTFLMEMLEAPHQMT
Description: Dr. F. Gage provided a population of stably transformed cells containing CVBE and 6XEcRE as described in Suhr, S. T., Gil, E. B., Senut M. C., Gage, F. H. (1998) Proc. Natl. Acad. Sci. USA 95, 7999-804. Human 293 kidney cells, also referred to as HEK-293 cells, were sequentially infected with retroviral vectors encoding first the switch construct CVBE, and subsequently the reporter construct 6XEcRE Lac Z. The switch construct contained the coding sequence for amino acids 26-546 from Bombyx mori EcR (BE) (Iatrou) inserted in frame and downstream of the VP16 transactivation domain (VBE). A synthetic ATG start codon was placed under the control of cytomegalovirus (CVBE) immediate early promoter and flanked by long terminal repeats (LTR). The reporter construct contained six copies of the ecdysone response element (EcRE) binding site placed upstream of LacZ and flanked on both sides with LTR sequences (6XEcRE).
Dilution cloning was used to isolate individual clones. Clones were selected using 450 ug/mL G418 and 100 ng/mL puromycin. Individual clones were evaluated based on their response in the presence and absence of test ligands. Clone Z3 was selected for screening and SAR purposes.
Human 293 kidney cells stably transformed with CVBE and 6XEcRE lack were maintained in Minimum Essential Medium (Mediates, 10-010-CV) containing 10% FBS (Life Technologies, 26140-087), […] G418 (Mediates, 30-234-CR), and […] (Sigma, P-7255), at 37° C. in an atmosphere containing 5% CO2 and were subculture when they reached 75% confluence.
Z3 cells were seeded into 96-well tissue culture plates at a concentration of 2.5×10^3 cells per well and incubated at 37° C. in 5% CO2 for twenty-four hours. Stock solutions of ligands were prepared in DMSO. Ligand stock solutions were diluted 100 fold in media and 50 μL of this diluted ligand solution (33 μM) was added to cells. The final concentration of DMSO was maintained at […] in both controls and treatments.
Reporter gene expression was evaluated 48 hours after treatment of cells, β-galactosidase activity was measured using Gal Screen™ bioluminescent reporter gene assay system from Tropix (GSY1000).
Flanking both constructs are long terminal repeats, G418 and puromycin are selectable markers, CMV is the cytomegalovirus promoter, VBE is coding sequence for amino acids 26-546 from Bombyx mori EcR inserted downstream of the VP16 transactivation domain, 6×EcRE is six copies of the ecdysone response element, lacZ encodes for the reporter enzyme β-galactosidase. Suhr, S. T., Gil, E. B., Senut M. C., Gage, F. H. (1998) Proc. Natl. Acad. Sci. USA 95, 7999-804. Swevers, L., Drevet, J. R., Lunke, M. D., Iatrou, K. (1995) Insect Biochem. Mol. Biol. 25, 857-866.

[2] = molecular target: T2, GAL4 DBD (1-147)-CfEcR(DEF)/VP16AD-βRXREF-LmUSPEF (Choristoneura fumiferana, UniProt O77240); assay: 27-63 assay: luciferase reporter gene expression in stable CHO cell clone 27-63; settings: for Fold Induction Average, 27-63 Assay (33 μM): single dose 33 μM, RLU ligand treated / RLU DMSO treated cells; for CC50: read-out: 27-63 LC50, average, dose response; for CC50 / EC50: three-parameter logistic model; for EC50: 27-63 EC50 (μM), CHO clone 27-63, luciferase reporter 48 h after treatment, dose response 8 concentrations 33 μM to 0.01 μM
T2 sequence (O77240 191-513): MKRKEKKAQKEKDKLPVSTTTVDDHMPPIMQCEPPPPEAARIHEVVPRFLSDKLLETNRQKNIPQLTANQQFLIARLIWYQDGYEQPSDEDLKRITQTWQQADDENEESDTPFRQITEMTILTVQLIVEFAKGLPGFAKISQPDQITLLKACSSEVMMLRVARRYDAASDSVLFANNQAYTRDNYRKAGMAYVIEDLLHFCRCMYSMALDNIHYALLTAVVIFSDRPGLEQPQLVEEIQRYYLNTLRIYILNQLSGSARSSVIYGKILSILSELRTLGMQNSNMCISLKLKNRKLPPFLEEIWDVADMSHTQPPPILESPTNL
T2 sequence (P28702 296-455 partner limits assumed): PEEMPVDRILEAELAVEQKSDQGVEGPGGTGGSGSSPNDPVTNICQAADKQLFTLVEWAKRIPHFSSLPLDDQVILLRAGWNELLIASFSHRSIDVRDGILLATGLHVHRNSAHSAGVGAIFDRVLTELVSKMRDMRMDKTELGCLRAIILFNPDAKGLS
Description: GAL4 DBD (1-147)-CfEcR(DEF)/VP16AD-βRXREF-LmUSPEF: The wild-type D, E, and F domains from spruce budworm Choristoneura fumiferana EcR (“CfEcR-DEF”; SEQ ID NO: 1) were fused to a GAL4 DNA binding domain (“Gal4 DBD1-147”; nucleotides 31 to 471 of SEQ ID NO: 2) and placed under the control of a phosphoglycerate kinase promoter (“PGK”; SEQ ID NO: 3). Helices 1 through 8 of the EF domains from Homo sapiens RXRβ and helices 9 through 12 of the EF domains of Locusta migratoria Ultraspiracle Protein (“HsRXRβ-EF-LmUSP-EF”; SEQ ID NO: 4) were fused to the transactivation domain from VP16 (“VP16AD”; SEQ ID NO: 5) and placed under the control of an elongation factor-1α promoter (“EF-1α”; SEQ ID NO: 6). Five consensus GAL4 response element binding sites (“5XGAL4RE”; comprising 5 copies of a GAL4RE comprising SEQ ID NO: 7) were fused to a synthetic TATA minimal promoter (SEQ ID NO: 8) and placed upstream of the luciferase reporter gene (SEQ ID NO: 9).
CHO cells were transiently transfected with transcription cassettes for GAL4 DBD (1-147) CfEcR(DEF) and for VP16AD βRXREF-LmUSPEF controlled by ubiquitously active cellular promoters (PGK and EF-1α, respectively) on a single plasmid. Stably transfected cells were selected by Zeocin resistance. Individually isolated CHO cell clones were transiently transfected with a GAL4 RE-luciferase reporter (pFR Luc). 27-63 clone was selected using Hygromycin.
(§1) Cells were trypsinized and diluted to a concentration of 2.5×10^4 cells mL. 100 μL of cell suspension was placed in each well of a 96 well plate and incubated at 37° C. under 5% CO2 for 24 h. Ligand stock solutions were prepared in DMSO and diluted 300 fold for all treatments. Dose response testing consisted of 8 concentrations ranging from 33 μM to 0.01 μM.
(§2) Luciferase reporter gene expression was measured 48 h after cell treatment using Bright-Glo™ Luciferase Assay System from Promega (E2650). Luminescence was detected at room temperature using a Dynex MLX microtiter plate luminometer.
(§3) Fold inductions were calculated from single dose testing by dividing relative light units (RLU) in ligand treated cells by RLU in DMSO treated cells. BC50s were calculated from dose response data using a three-parameter logistic model.

[3] = molecular target: T3, GAL4 DBD-CfEcR(DEF)/VP16AD-MmRXRE (Choristoneura fumiferana, UniProt O77240); assay: cell-based; settings: single dose 33 μM; RLU ligand treated / RLU DMSO treated cells
T3 sequence (O77240 1-513): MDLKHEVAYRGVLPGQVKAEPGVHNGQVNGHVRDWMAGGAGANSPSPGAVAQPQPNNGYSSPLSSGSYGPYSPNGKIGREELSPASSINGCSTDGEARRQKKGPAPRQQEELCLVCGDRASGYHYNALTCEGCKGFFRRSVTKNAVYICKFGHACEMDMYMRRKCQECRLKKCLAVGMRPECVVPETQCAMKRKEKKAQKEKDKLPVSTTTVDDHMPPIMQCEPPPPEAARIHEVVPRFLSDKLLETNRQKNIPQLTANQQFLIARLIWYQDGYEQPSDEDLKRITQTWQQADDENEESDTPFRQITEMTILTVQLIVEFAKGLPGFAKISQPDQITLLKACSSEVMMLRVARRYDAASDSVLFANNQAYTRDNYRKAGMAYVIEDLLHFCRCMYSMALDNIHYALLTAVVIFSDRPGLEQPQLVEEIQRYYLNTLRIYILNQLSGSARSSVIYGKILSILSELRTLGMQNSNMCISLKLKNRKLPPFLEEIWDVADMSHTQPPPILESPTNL
Description: GAL4 DBD-CfEcR(DEF)/VP16AD-MmRXRE: The wild-type D, E, and F domains from spruce budworm Choristoneura fumiferana EcR (“CfEcR-DEF”; SEQ ID NO: 1) were fused to a GAL4 DNA binding domain (“Gal4 DBD1-147”; nucleotides 31 to 471 of SEQ ID NO: 2) and placed under the control of the SV40e promoter of pM vector (PT3119-5, Clontech, Palo Alto, Calif.). The D and E domains from Mus Musculus RXR (“MmRXR-DE”; SEQ ID NO: 10) were fused to the transactivation domain from VP16 (“VP16AD”; SEQ ID NO: 5) and placed under the control of the SV40e promoter of the pVP16 vector (PT3127-5, Clontech, Palo Alto, Calif.).
CHO cells were transienty transfected with transcription cassettes for GAL4 DBD-CfEcR(DEF) and for VP16AD-MmRXRE controlled by SV40e promoters. Stably transfected cells were selected using Hygromycin. Individually isolated CHO cell clones were transiently transfected with a GAL4 RE-luciferase reporter (pMR-Luc, Stratagene, La Jolla, Calif.). The 13B3 clone was selected using Zeocin.
as §1, §2, §3

[4] = maximum fold induction at any concentration relative to that of GS-E ligand
[5] = maximum fold induction at any concentration relative to maximum fold induction of GS™-E ligand, CHO clone 27-63

Row | SMILES | Fold Induction Average, Z3 Assay (33 μM) [1] | Fold Induction Average, 27-63 Assay (33 μM) [2] | CC50 [1] [nM] | Z3 Rel Max FI [1] | 27-63 Rel Max FI [2, 4] | CC50 [2] [nM] | also measured
1 | COc1cccc(C(=O)NC2(C(=O)c3cc(C)cc(C)c3)CCN(CC#N)CC2)c1C [Example 159] | 2 | 1 |  |  |  |  | 
2 | COc1cccc(C(=O)NC2(C(=O)c3cc(C)cc(C)c3)CCCNC2)c1C (racemic) [Example 148] | 7 | 2 |  |  |  |  | 
3 | CCNC(=O)N1CCCC(NC(=O)c2cccc(OC)c2C)(C(=O)c2cc(C)cc(C)c2)C1 (racemic) [Example 160] | 1 | 1 |  |  |  |  | 
4 | Cc1ccccc1C(=O)NC1(C(=O)c2ccccc2)CCCC1 [Example 140] |  |  | > 33000 | 0.00 | 0.00 | > 33000 | 
5 | O=C(NC1(C(=O)c2ccccc2)CCCC1)c1ccc2c(c1)OCO2 [Example 142] |  |  | > 33000 | 0.00 | 0.00 | > 33000 | 
6 | Cc1cc(C)cc(C(=O)C2(NC(=O)c3ccc4c(c3C)OCO4)CCCC2)c1 [Example 85] |  |  | 4760 | 0.67 | 0.94 | 3860 | 
7 | COc1cccc(C(=O)NC2(C(=O)c3cc(C)cc(C)c3)CCCN(C(C)=O)C2)c1C (racemic) [Example 153] | 3 | 1 |  |  |  |  | 
8 | Cc1ccc(S(=O)(=O)NC2(C(=O)c3cc(C)cc(C)c3)CCCC2)cc1 [Example 180] |  |  |  |  |  |  | EC50 [2]: 1.24 µM and 1.8 µM; 27-63 Rel Max FI [2, 5]: 0.86 and 1.00
9 | CCc1c(C(=O)NC2(C(=O)c3cc(C)cc(C)c3)CCCCC2)ccc2c1OCCO2 [Example 80] |  |  | 740 | 0.89 | 0.91 | 390 | 
10 | Cc1cc(C)cc(C(=O)C2(NS(=O)(=O)c3ccc4c(c3)COCO4)CCCCC2)c1 [Example 179] |  |  |  |  |  |  | EC50 [2]: 6.53 µM; 27-63 Rel Max FI [2, 5]: 0.28
11 | CC(C)(NC(=O)c1ccc(Cl)cc1)C(=O)c1ccccc1 [Example 95] | 4 |  | 820 | 2.27 |  |  | Fold Induction Average, 13B3 Assay (33 μM) [3]: 1
